Consider 4 compounds from patent EP0799174B1, “BIOCIDAL ALCOHOLS, THEIR PRODUCTION AND THEIR USE” (SCHÜLKE & MAYR GMBH, priority 1994, dated 1996).

Structures are written as SMILES.

Common to all, as to type: cell-based
For one assay, the system named is P. vulgaris. From the text: (§1) Standard formulation: • aromatic alcohol 1 part • dimethylformamide 6 parts [table] The diameters of the inhibition zones are given in mm.
The subject of assay [1] is Aspergillus niger ATCC 6275. The assay can be described thus: MIC values, water-insoluble (covered area of plates, solutions in acetone). As to conditions: solution in acetone, 100% means no inhibiting action. From the text:
(§2) [table] The size of the covered areas of the plates is given in %; 100% means no inhibiting action.

Assay [2] concerns Escherichia coli ATCC 11229. The assay is described as above. The settings on record: solution in acetone, 100% means no inhibiting action.
From the text: as §2

Assay [3] relates to Candida albicans ATCC 10231. Described as above. As to conditions: solution in acetone, 100% means no inhibiting action.
From the text: as §2

Assay [4] relates to Staphylococcus aureus ATCC 6538. The description is as above. The settings on record: solution in acetone, 100% means no inhibiting action.
From the text: as §2

For assay [5], the system named is Pseudomonas aeruginosa ATCC 15442. The assay can be described thus: Plate diffusion test (agar diffusion test). The settings on record: aromatic alcohol 1 part, dimethylformamide 6 parts.
From the text: as §1

In assay [6] the test system is Escherichia coli ATCC 11229. The assay can be described thus: Plate diffusion test (agar diffusion test). As to conditions: aromatic alcohol 1 part, dimethylformamide 6 parts.
From the text: as §1

Assay [7] relates to Candida albicans ATCC 10231. The assay can be described thus: Plate diffusion test (agar diffusion test). The settings on record: aromatic alcohol 1 part, dimethylformamide 6 parts.
From the text: as §1

In assay [8] the test system is Staphylococcus aureus ATCC 6538. The assay can be described thus: Plate diffusion test (agar diffusion test). The settings on record: aromatic alcohol 1 part, dimethylformamide 6 parts.
From the text: as §1

For the compound `CCC(CO)Cc1ccccc1C` (stereo not drawn) [Alcohol 12], the “diameters of the inhibition zones, P. vulgaris” value with P. vulgaris was 13 mm. Moreover, the “size of the covered areas of the plates, A. niger” value (from here on “size … A. niger”) stood at 100% in assay [1] (concentration 0.50 % by wt.) and 80% in [1] (concentration 1.00 % by wt.). Further, the “size of the covered areas of the plates, E. coli” value (“size … E. coli” below) in [2] (concentration 0.50 % by wt.) and in assay [2] (concentration 1.00 % by wt.) was 100% each time. The “size of the covered areas of the plates, C. albicans” value (from here on “size … C. albicans”) was determined as 100% in assay [3] (concentration 0.50 % by wt.) and 80% in assay [3] (concentration 1.00 % by wt.). Besides, the “size of the covered areas of the plates, S. aureus” value (shortened to “size … S. aureus”) is on record as 100% in [4] (concentration 0.50 % by wt.) and 90% in assay [4] (concentration 1.00 % by wt.). The “diameters of the inhibition zones, P. aeruginosa” value in [5] worked out at 15 mm. The “diameters of the inhibition zones, E. coli” value in assay [6] is recorded as 17 mm. The “diameters of the inhibition zones, C. albicans” value in assay [7] turned out to be 22 mm. Further, in assay [8], the “diameters of the inhibition zones, S. aureus” value was determined as 20 mm.
On to `CCC(CO)Cc1cccc(OC)c1` (stereo not drawn) [Alcohol 15], for which the “diameters of the inhibition zones, P. vulgaris” value in the assay on P. vulgaris came to 18 mm. In addition, the figures for the “size … A. niger” value in [1] (concentration 0.50 % by wt.) and in [1] (concentration 1.00 % by wt.) were 100% and 90%, respectively. The “size … E. coli” value in assay [2] (concentration 0.50 % by wt.) and in [2] (concentration 1.00 % by wt.) was 100% throughout. Besides, the “size … C. albicans” value in assay [3] (concentration 0.50 % by wt.) and in assay [3] (concentration 1.00 % by wt.) was 100% throughout. Also, the “size … S. aureus” value in [4] (concentration 0.50 % by wt.) and in [4] (concentration 1.00 % by wt.) was 100% throughout. Besides, in assay [5], the “diameters of the inhibition zones, P. aeruginosa” value came out at 15 mm. In addition, in assay [6], the “diameters of the inhibition zones, E. coli” value was found to be 18 mm. Further, the “diameters of the inhibition zones, C. albicans” value in [7] is 23 mm. In assay [8], the “diameters of the inhibition zones, S. aureus” value is on record as 18 mm.
As to `CCCCCC(CO)Cc1ccccc1` (stereo not drawn) [Alcohol 18], the “diameters of the inhibition zones, P. vulgaris” value with P. vulgaris came out at 0 mm. In addition, the “size … A. niger” value came to 100% in assay [1] (concentration 0.25 % by wt.), 40% in [1] (concentration 0.50 % by wt.) and 0% in assay [1] (concentration 1.00 % by wt.). The “size … E. coli” value in assay [2] (concentration 0.25 % by wt.), in assay [2] (concentration 0.50 % by wt.) and in assay [2] (concentration 1.00 % by wt.) was 100% throughout. For the same compound, the entries for the “size … C. albicans” value in [3] (concentration 0.25 % by wt.), in assay [3] (concentration 0.50 % by wt.) and in assay [3] (concentration 1.00 % by wt.) were 100%, 80% and 70%, respectively. Moreover, the “size … S. aureus” value in assay [4] (concentration 0.25 % by wt.) is 100%; in assay [4] (concentration 0.50 % by wt.) it was 20%; in [4] (concentration 1.00 % by wt.) it was 0%. The “diameters of the inhibition zones, P. aeruginosa” value in assay [5] was 0 mm. The “diameters of the inhibition zones, E. coli” value in [6] was determined as 0 mm. The “diameters of the inhibition zones, C. albicans” value in assay [7] is reported as 11 mm. Besides, in [8], the “diameters of the inhibition zones, S. aureus” value worked out at 11 mm.
Regarding `CCC(CO)Cc1ccc(OC)c(OC)c1` (stereo not drawn) [Alcohol 16], the “diameters of the inhibition zones, P. vulgaris” value in the assay with P. vulgaris amounted to 17 mm. For the same compound, in assay [5], the “diameters of the inhibition zones, P. aeruginosa” value amounted to 18 mm. Also, the “diameters of the inhibition zones, E. coli” value in assay [6] came to 17 mm. For the same compound, the “diameters of the inhibition zones, C. albicans” value in assay [7] came out at 28 mm. The “diameters of the inhibition zones, S. aureus” value in assay [8] is 18 mm.
